Columns and labels:
HOP-92 = assay: Antiproliferative activity against human HOP-92 cells assessed as inhibition of cell growth at 10 uM measured after 48 hrs by SRB assay relative to control; type: functional
NCI-H23 = assay: Antiproliferative activity against human NCI-H23 cells assessed as inhibition of cell growth at 10 uM measured after 48 hrs by SRB assay relative to control; type: functional
NCI-H322M = assay: Antiproliferative activity against human NCI-H322M cells assessed as inhibition of cell growth at 10 uM measured after 48 hrs by SRB assay relative to control; type: functional
NCI-H522 = assay: Antiproliferative activity against human NCI-H522 cells assessed as inhibition of cell growth at 10 uM measured after 48 hrs by SRB assay relative to control; type: functional
HCT-15 = assay: Antiproliferative activity against human HCT-15 cells assessed as inhibition of cell growth at 10 uM measured after 48 hrs by SRB assay relative to control; type: functional
KM12 = assay: Antiproliferative activity against human KM12 cells assessed as inhibition of cell growth at 10 uM measured after 48 hrs by SRB assay relative to control; type: functional
SF-539 = assay: Antiproliferative activity against human SF-539 cells assessed as inhibition of cell growth at 10 uM measured after 48 hrs by SRB assay relative to control; type: functional
MDA-MB-435 = assay: Antiproliferative activity against human MDA-MB-435 cells assessed as inhibition of cell growth at 10 uM measured after 48 hrs by SRB assay relative to control; type: functional
SK-OV-3 [1] = assay: Antiproliferative activity against human SK-OV-3 cells assessed as inhibition of cell growth at 10 uM measured after 48 hrs by SRB assay relative to control; type: functional
ACHN = assay: Antiproliferative activity against human ACHN cells assessed as inhibition of cell growth at 10 uM measured after 48 hrs by SRB assay relative to control; type: functional
Hs-578T = assay: Antiproliferative activity against human Hs-578T cells assessed as inhibition of cell growth at 10 uM measured after 48 hrs by SRB assay relative to control; type: functional
T47D = assay: Antiproliferative activity against human T47D cells assessed as inhibition of cell growth at 10 uM measured after 48 hrs by SRB assay relative to control; type: functional
CCRF-CEM = assay: Antiproliferative activity against human CCRF-CEM cells assessed as inhibition of cell growth measured after 48 hrs by SRB assay; type: functional
HL-60(TB) = assay: Antiproliferative activity against human HL-60(TB) cells assessed as inhibition of cell growth measured after 48 hrs by SRB assay; type: functional
K562 = assay: Antiproliferative activity against human K562 cells assessed as inhibition of cell growth measured after 48 hrs by SRB assay; type: functional
MOLT-4 = assay: Antiproliferative activity against human MOLT-4 cells assessed as inhibition of cell growth measured after 48 hrs by SRB assay; type: functional
A549 = assay: Antiproliferative activity against human A549 cells assessed as inhibition of cell growth measured after 48 hrs by SRB assay; type: functional
HCC 2998 = assay: Antiproliferative activity against human HCC 2998 cells assessed as inhibition of cell growth measured after 48 hrs by SRB assay; type: functional
SF-295 = assay: Antiproliferative activity against human SF-295 cells assessed as inhibition of cell growth measured after 48 hrs by SRB assay; type: functional
Malme-3M = assay: Antiproliferative activity against human Malme-3M cells assessed as inhibition of cell growth measured after 48 hrs by SRB assay; type: functional
M14 = assay: Antiproliferative activity against human M14 cells assessed as inhibition of cell growth measured after 48 hrs by SRB assay; type: functional
SK-MEL-28 = assay: Antiproliferative activity against human SK-MEL-28 cells assessed as inhibition of cell growth measured after 48 hrs by SRB assay; type: functional
OVCAR-4 = assay: Antiproliferative activity against human OVCAR-4 cells assessed as inhibition of cell growth measured after 48 hrs by SRB assay; type: functional
OVCAR-8 = assay: Antiproliferative activity against human OVCAR-8 cells assessed as inhibition of cell growth measured after 48 hrs by SRB assay; type: functional
SK-OV-3 [2] = assay: Antiproliferative activity against human SK-OV-3 cells assessed as inhibition of cell growth measured after 48 hrs by SRB assay; type: functional
RXF 393 = assay: Antiproliferative activity against human RXF 393 cells assessed as inhibition of cell growth measured after 48 hrs by SRB assay; type: functional
PC-3 = assay: Antiproliferative activity against human PC-3 cells assessed as inhibition of cell growth measured after 48 hrs by SRB assay; type: functional
MDA-MB-468 = assay: Antiproliferative activity against human MDA-MB-468 cells assessed as inhibition of cell growth measured after 48 hrs by SRB assay; type: functional
HCT-116 [3] = assay: Cytotoxicity against human HCT-116 cells assessed as reduction in cell viability after 48 hrs by MTT assay; type: functional, cell-based; conditions: HCT-116, 48 h
HCT-116 [4] = assay: Cell cycle arrest in human HCT-116 cells assessed as accumulation in sub-G phase at IC50 concentration incubated for 48 hrs by propidium iodide staining based flow cytometry analysis (reference value: 2.4 %); type: functional
WI-38 [5] = assay: Cell cycle arrest in human WI-38 cells assessed as accumulation in G0/G1 phase at IC50 concentration incubated for 48 hrs by propidium iodide staining based flow cytometry analysis (reference value: 57.68 %); conditions: wi-38, 48 h
WI-38 [6] = assay: Induction of apoptosis in human WI-38 cells assessed as necrotic cells at IC50 incubated for 48 hrs by annexin-V FITC and propidium iodide staining based flow cytometry analysis (reference value: 0.39 %); type: cell-based; conditions: wi-38, 48 h
HCT-116 [7] = assay: Induction of apoptosis in human HCT116 cells assessed as increase in p53 gene expression by RT-PCR analysis relative to untreated control; type: functional
HCT-116 [8] = assay: Induction of apoptosis in human HCT116 cells assessed as up regulation of caspase-8 expression by RT-PCR analysis relative to untreated control; type: functional
[9] = read-out: LC50 (the source's name)

COc1ccc(-n2c(=S)sc3c(Cl)nc(C)nc32)c(OC)c1
inhibition at 10 µM (HOP-92): > 50% | inhibition at 10 µM (NCI-H23): > 50% | inhibition at 10 µM (NCI-H322M): > 50% | inhibition at 10 µM (NCI-H522): > 50% | inhibition at 10 µM (HCT-15): > 50% | inhibition at 10 µM (KM12): > 50% | inhibition at 10 µM (SF-539): > 50% | inhibition at 10 µM (MDA-MB-435): > 50% | inhibition at 10 µM (SK-OV-3 [1]): > 50% | inhibition at 10 µM (ACHN): > 50% | inhibition at 10 µM (Hs-578T): > 50% | inhibition at 10 µM (T47D): > 50% | GI50 (CCRF-CEM): 2.69 µM | TGI (CCRF-CEM): 7.41 µM | CC50 (CCRF-CEM; [9]): > 100 µM | GI50 (HL-60(TB)): 1.41 µM | TGI (HL-60(TB)): 5.89 µM | CC50 (HL-60(TB); [9]): > 100 µM | GI50 (K562): 1.2 µM | TGI (K562): 3.8 µM | CC50 (K562; [9]): > 100 µM | GI50 (MOLT-4): 2.14 µM | TGI (MOLT-4): 5.5 µM | CC50 (MOLT-4; [9]): > 100 µM | GI50 (A549): 4.47 µM | TGI (A549): 15.8 µM | CC50 (A549; [9]): 40.7 µM | GI50 (HCC 2998): 16.2 µM | TGI (HCC 2998): 30.9 µM | CC50 (HCC 2998; [9]): 58.9 µM | GI50 (SF-295): 7.08 µM | TGI (SF-295): 19.9 µM | CC50 (SF-295; [9]): 46.8 µM | GI50 (Malme-3M): 2.24 µM | TGI (Malme-3M): 6.17 µM | CC50 (Malme-3M; [9]): 27.5 µM | GI50 (M14): 1.86 µM | TGI (M14): 4.07 µM | CC50 (M14; [9]): 8.91 µM | GI50 (SK-MEL-28): 2.19 µM | TGI (SK-MEL-28): 4.57 µM | CC50 (SK-MEL-28; [9]): 9.77 µM | GI50 (OVCAR-4): 4.68 µM | TGI (OVCAR-4): 15.5 µM | CC50 (OVCAR-4; [9]): 41.7 µM | GI50 (OVCAR-8): 2.69 µM | TGI (OVCAR-8): 7.41 µM | CC50 (OVCAR-8; [9]): 40.7 µM | GI50 (SK-OV-3 [2]): 14.1 µM | TGI (SK-OV-3 [2]): 27.5 µM | CC50 (SK-OV-3 [2]; [9]): 52.5 µM | GI50 (RXF 393): 2 µM | TGI (RXF 393): 4.07 µM | CC50 (RXF 393; [9]): 8.32 µM | GI50 (PC-3): 2.4 µM | TGI (PC-3): 5.89 µM | CC50 (PC-3; [9]): 22.9 µM | GI50 (MDA-MB-468): 2 µM | TGI (MDA-MB-468): 6.61 µM | CC50 (MDA-MB-468; [9]): 93.3 µM | IC50 (HCT-116 [3]): 5.34 µM | Activity (HCT-116 [4]): 17.67% | Activity (WI-38 [5]): 54.45% | Activity (WI-38 [6]): 1.41% | fold change (FC) (HCT-116 [7]): 13.1 | fold change (FC) (HCT-116 [8]): 7.9

From ChEMBL document CHEMBL4725331, “An investigative study of antitumor properties of a novel thiazolo[4,5-d]pyrimidine small molecule revealing superior antitumor activity with CDK1 selectivity and potent pro-apoptotic properties” (Bioorg Med Chem, 2020)
